Active and inactive are the calls of the source.
Tests used:
Estrogen receptor = biological target: T1, Estrogen receptor (Homo sapiens, UniProt P03372); assay: potentiators of ERα–SRC-1 coactivator binding, dose response, biochemical, TR-FRET, ERα LBD (AID 737)
T1 sequence (P03372 whole entry): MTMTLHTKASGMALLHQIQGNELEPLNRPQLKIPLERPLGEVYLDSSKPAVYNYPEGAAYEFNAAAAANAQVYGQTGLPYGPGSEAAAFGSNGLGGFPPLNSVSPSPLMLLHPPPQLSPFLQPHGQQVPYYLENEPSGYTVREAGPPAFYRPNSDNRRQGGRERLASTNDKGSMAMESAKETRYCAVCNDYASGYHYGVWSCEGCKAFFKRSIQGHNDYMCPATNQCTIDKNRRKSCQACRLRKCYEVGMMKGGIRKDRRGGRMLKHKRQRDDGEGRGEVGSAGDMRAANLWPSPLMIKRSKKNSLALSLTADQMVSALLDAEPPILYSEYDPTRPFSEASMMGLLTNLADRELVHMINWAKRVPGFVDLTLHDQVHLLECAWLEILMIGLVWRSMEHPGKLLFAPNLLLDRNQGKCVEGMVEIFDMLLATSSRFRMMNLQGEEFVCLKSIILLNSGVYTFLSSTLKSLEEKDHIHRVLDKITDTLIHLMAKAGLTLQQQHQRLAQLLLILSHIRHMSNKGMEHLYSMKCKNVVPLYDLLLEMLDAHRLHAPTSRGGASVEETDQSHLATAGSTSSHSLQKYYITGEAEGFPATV

[1] = biological target: Polyadenylate-binding protein 1 (Homo sapiens, UniProt P11940); assay: PABP poly(A) RNA binding inhibitors, primary screen, biochemical, fluorescence polarization, uHTS (AID 2014)
Polyadenylate-binding protein 1, sequence (P11940 whole entry): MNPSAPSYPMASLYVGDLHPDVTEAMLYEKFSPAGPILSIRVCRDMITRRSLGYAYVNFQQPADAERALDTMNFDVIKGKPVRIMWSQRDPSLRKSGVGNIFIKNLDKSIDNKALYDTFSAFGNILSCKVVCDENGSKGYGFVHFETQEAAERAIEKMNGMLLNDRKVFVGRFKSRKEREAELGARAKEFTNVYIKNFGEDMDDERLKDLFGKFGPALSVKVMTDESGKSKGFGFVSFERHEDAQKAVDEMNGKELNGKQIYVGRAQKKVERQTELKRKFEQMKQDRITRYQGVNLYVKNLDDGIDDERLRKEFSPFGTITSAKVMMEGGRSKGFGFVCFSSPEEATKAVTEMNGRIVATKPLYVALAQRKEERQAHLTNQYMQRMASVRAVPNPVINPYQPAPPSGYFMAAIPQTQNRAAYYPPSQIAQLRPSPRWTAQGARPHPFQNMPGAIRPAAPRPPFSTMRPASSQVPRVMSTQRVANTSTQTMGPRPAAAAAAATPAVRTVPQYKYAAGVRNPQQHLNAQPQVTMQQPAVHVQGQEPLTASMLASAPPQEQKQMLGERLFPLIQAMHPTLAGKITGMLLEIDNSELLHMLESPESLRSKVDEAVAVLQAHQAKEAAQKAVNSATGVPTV

[2] = biological target: Eukaryotic translation initiation factor 4H (Homo sapiens, UniProt Q15056); assay: human eIF4H binding inhibitors, primary screen, translation initiation inhibitor project, biochemical, uHTS, fluorescence polarization (AID 2012)
HEK293 [3] = assay: NOD1 signaling inhibitors, primary screen, cell-based, luminescence, uHTS (AID 1578); assay type: functional; conditions: Homo sapiens
Tumor necrosis factor = Tumor necrosis factor (Homo sapiens, UniProt P01375); assay: TNFa-triggered NF-kB activation inhibitors, SAR follow-up, cell-based, revised (AID 2337); assay type: functional
Tumor necrosis factor, sequence (P01375 whole entry, the tested form may be a part): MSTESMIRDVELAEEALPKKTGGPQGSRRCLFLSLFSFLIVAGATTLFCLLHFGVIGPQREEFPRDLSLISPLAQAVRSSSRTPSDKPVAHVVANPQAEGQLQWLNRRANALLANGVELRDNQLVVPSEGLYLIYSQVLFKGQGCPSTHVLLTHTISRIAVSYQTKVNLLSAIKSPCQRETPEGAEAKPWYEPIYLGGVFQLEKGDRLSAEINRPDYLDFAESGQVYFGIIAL

[4] = biological target: T2, Nucleotide-binding oligomerization domain-containing protein 1 (Homo sapiens, UniProt Q9Y239); assay: NOD1 signaling inhibitors, SAR follow-up, revised (AID 2333); assay type: functional
T2 sequence (Q9Y239 whole entry): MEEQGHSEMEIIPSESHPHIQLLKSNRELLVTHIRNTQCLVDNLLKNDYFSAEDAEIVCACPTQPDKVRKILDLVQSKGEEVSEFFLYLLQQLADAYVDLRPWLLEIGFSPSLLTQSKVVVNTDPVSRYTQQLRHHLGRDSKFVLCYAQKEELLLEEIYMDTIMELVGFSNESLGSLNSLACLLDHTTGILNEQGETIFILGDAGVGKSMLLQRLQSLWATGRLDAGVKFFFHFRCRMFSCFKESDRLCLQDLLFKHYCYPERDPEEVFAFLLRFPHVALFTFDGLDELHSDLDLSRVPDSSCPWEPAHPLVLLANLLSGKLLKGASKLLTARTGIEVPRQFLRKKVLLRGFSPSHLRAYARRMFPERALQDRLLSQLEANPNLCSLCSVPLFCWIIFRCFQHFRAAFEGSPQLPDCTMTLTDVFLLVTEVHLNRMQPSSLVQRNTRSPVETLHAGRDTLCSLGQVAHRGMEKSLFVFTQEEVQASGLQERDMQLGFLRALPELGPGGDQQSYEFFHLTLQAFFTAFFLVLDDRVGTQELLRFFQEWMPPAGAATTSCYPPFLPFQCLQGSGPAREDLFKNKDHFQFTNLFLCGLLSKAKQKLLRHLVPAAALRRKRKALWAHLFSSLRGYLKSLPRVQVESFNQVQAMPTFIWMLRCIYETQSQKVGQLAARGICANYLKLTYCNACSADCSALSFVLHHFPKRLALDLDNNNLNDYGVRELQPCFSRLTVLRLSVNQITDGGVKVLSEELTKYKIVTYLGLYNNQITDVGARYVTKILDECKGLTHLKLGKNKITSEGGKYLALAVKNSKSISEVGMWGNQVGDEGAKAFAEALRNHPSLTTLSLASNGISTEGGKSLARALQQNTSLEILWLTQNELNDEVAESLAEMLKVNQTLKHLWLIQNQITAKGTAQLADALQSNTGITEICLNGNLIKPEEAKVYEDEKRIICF

HEK293 [5] = assay: cells; assay type: functional, cell-based; conditions: Homo sapiens
HEK293 [6] = assay: cells; conditions: Homo sapiens
[7] = biological target: Nucleotide-binding oligomerization domain-containing protein 2 (Homo sapiens, UniProt Q9HC29); assay: PubChem AID 2334; assay type: functional
Nucleotide-binding oligomerization domain-containing protein 2, sequence (Q9HC29 whole entry, the tested form may be a part): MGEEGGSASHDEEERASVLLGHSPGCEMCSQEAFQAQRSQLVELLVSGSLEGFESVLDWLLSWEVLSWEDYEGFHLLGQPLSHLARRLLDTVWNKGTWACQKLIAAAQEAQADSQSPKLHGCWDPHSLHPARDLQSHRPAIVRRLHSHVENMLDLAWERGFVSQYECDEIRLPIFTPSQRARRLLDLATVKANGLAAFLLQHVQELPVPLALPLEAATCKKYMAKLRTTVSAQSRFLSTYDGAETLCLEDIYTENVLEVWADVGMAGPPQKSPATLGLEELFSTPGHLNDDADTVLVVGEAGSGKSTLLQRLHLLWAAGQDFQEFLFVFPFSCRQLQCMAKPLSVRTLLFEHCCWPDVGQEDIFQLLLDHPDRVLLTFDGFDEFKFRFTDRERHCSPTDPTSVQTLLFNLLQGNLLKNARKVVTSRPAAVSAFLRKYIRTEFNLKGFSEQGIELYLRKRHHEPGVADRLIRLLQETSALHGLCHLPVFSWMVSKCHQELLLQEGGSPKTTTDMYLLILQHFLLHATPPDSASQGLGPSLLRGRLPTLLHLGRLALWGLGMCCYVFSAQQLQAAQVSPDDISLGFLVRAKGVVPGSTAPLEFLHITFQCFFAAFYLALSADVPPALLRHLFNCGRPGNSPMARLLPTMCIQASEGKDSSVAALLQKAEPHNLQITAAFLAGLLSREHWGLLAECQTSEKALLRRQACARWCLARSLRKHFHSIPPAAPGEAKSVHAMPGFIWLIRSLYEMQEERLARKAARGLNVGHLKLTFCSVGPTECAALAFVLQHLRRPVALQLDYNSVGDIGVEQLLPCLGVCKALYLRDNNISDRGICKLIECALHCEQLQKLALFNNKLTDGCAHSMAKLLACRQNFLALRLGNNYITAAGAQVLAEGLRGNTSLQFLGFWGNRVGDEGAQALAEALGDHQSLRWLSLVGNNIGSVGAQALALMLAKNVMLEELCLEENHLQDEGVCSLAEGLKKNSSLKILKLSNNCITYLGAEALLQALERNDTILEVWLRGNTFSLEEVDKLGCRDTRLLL

HEK293 [8] = assay: NOD2 signaling inhibitors in MDP-stimulated cells, cell-based, uHTS, luminescence (AID 2001); assay type: functional; conditions: Homo sapiens
HEK293 [9] = assay: cells; assay type: functional, cell-based; conditions: Homo sapiens; remark: listed apart in the source
[10] = biological target: T3, Alkaline phosphatase, tissue-nonspecific isozyme (Homo sapiens, UniProt P05186)
T3 sequence (P05186 whole entry): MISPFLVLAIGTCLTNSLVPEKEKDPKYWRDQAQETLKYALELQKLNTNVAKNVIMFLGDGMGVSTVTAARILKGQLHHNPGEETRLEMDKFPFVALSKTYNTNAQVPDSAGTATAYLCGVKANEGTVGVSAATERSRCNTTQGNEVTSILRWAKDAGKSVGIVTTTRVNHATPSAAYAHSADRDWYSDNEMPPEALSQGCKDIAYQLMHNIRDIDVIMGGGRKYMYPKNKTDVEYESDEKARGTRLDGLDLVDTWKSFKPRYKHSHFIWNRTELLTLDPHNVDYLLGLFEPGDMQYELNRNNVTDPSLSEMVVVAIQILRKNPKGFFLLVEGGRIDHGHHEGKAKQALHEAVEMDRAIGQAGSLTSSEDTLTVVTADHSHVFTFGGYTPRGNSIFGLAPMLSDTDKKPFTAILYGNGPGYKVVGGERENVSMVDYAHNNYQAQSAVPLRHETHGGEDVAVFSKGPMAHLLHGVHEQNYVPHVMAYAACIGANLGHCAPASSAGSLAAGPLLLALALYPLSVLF

Streptococcus = assay: Group A Streptococcus viability loss, dose response, counter-screen for streptokinase expression inhibitor project, luminescence, BacTiterGlo (AID 1915); assay type: functional, organism-based;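 also: potency for reduction of bacterial viability or growth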
[11] = tested on: Streptococcus sp. 'group A'; assay: growth inhibition of control SK(-) GAS strain, dose response, counter-screen for streptokinase expression inhibitor project, luminescence, kanamycin, BacTiterGlo, confirmation (AID 1900); assay type: functional, organism-based
[12] = biological target: T4, Heat shock factor protein 1 (Mus musculus, UniProt P38532); assay: inhibition of MG132-induced HSE-luciferase signal, confirmation, cell-based, NIH3T3, luminescence, dose retest (AID 2382); assay type: functional;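 also: NIH3T3 fibroblasts with HSF1-driven luciferase reporter stressed by proteasome inhibitor MG132; luminescence from HSF1-driven luciferase expression after 8 hours of MG132 stress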
T4 sequence (P38532 whole entry): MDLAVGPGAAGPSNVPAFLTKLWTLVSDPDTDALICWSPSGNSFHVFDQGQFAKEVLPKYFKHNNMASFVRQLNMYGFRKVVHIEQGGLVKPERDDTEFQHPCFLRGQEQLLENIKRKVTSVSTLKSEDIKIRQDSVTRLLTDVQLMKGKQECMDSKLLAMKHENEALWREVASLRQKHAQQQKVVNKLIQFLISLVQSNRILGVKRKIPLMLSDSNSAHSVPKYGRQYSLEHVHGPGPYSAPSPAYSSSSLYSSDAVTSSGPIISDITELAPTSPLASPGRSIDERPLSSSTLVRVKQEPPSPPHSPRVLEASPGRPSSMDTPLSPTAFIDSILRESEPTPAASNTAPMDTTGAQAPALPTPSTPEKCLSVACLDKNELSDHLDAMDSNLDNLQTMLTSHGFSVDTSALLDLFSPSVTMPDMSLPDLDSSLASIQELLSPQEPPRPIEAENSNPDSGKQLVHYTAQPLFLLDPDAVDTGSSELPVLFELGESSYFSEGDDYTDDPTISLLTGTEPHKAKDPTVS

[13] = A High Throughput Confirmatory Assay used to Identify Novel Compounds that Inhibit Mycobacterium Tuberculosis in the absence of Glycerol.; assay type: functional
[14] = THP-1 cell cytotoxicity, dose response, cytotoxicity control for Vif-APOBEC3G degradation inhibitor project, THP-1 cells (AID 1117359); assay type: functional; conditions: Human immunodeficiency virus 1, THP-1
Protein Tat = biological target: T5, Protein Tat (Human immunodeficiency virus type 1 group M subtype B (isolate HXB2)(HIV-1), UniProt P04608); assay type: functional;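 also: tat binding to TAR RNA read out by fluorescence polarization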
T5 sequence (P04608 whole entry): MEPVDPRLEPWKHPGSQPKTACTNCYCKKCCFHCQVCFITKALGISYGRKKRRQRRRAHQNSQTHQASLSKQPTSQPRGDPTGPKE

[15] = microbe, parasite or virus in culture; assay type: functional; conditions: Mycobacterium tuberculosis
Hexokinase HKDC1 = Hexokinase HKDC1 (Homo sapiens, UniProt Q2TB90); assay: HKDC1 hexokinase inhibitors, dose response, biochemical, W721R variant (AID 504729); assay type: functional
Hexokinase HKDC1, sequence (Q2TB90 whole entry): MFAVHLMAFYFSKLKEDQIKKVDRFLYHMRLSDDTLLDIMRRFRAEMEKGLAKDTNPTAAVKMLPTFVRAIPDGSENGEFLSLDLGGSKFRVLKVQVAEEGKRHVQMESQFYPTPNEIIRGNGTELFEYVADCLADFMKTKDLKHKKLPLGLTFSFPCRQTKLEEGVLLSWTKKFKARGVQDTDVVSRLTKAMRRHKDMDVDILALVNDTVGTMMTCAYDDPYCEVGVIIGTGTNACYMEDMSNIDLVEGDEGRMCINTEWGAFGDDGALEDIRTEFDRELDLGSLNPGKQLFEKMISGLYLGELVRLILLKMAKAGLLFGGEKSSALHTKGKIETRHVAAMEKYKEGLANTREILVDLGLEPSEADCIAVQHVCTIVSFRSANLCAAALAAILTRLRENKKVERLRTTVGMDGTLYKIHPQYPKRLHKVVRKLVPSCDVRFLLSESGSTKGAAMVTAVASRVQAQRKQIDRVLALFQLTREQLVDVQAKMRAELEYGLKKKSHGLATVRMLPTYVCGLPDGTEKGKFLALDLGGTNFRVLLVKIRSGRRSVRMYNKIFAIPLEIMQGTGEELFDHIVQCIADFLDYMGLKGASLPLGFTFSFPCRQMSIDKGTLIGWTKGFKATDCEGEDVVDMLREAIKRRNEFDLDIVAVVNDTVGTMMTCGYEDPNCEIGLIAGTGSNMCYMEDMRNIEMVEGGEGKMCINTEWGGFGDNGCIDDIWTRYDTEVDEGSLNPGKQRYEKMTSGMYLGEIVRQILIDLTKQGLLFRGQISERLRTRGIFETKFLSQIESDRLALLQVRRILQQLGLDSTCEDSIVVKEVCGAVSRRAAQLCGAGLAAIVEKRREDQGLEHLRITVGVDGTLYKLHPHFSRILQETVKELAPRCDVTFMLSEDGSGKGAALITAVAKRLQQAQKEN

Vero = Vero cell cytotoxicity, cytotoxicity control for flavivirus capping enzyme inhibitors (AID 588742); assay type: functional; conditions: Chlorocebus sabaeus
Genome polyprotein = Genome polyprotein (dengue virus type 2, UniProt P29990); assay: Dengue-2 NS5 methyltransferase inhibitors, primary screen, biochemical, confirmation dose response (AID 588689); assay type: functional
Genome polyprotein, sequence (P29990 2492-3391 limits assumed): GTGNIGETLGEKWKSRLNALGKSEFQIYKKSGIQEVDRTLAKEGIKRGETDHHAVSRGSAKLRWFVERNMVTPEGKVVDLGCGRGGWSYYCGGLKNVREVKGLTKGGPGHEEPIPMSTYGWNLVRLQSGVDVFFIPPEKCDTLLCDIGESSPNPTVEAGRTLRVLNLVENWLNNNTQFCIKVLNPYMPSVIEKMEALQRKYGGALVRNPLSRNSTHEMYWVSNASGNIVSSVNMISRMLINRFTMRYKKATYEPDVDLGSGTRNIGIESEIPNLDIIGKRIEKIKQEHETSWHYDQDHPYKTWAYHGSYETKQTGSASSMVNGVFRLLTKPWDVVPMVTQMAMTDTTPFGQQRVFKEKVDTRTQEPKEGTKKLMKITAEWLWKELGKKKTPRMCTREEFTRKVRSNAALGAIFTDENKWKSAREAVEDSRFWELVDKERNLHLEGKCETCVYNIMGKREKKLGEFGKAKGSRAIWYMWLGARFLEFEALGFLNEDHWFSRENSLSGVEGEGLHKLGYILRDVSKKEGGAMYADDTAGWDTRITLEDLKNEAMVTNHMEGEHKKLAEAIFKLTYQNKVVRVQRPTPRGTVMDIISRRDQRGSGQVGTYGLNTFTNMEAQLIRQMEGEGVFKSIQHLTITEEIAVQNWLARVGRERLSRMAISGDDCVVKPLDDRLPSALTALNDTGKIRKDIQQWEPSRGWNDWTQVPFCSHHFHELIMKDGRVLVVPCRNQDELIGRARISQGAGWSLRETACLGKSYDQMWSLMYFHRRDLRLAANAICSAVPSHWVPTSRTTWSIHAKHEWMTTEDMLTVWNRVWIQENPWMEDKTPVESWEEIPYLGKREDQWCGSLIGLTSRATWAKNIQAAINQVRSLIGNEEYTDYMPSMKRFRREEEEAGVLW

[16] = biological target: T6, Corticotropin-releasing factor receptor 2/Corticotropin-releasing factor-binding protein (Homo sapiens, UniProt P24387+Q13324); assay: activators of CRF receptor 2 with binding protein – uHTS hits, confirmation (AID 602473); assay type: functional; conditions: read-out: EC50_Mean
T6 sequence (Q13324 whole entry): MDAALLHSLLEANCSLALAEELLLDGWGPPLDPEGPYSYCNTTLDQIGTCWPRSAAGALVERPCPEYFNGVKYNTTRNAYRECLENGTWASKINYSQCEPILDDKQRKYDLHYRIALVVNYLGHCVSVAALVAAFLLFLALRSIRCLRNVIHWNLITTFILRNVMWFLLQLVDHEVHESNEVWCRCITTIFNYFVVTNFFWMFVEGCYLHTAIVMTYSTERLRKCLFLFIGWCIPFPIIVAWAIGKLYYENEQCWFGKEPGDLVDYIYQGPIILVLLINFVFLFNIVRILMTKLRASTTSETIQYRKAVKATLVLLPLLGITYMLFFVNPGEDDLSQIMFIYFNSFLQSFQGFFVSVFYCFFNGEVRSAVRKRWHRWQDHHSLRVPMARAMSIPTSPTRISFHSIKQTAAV
T6 sequence (P24387 whole entry): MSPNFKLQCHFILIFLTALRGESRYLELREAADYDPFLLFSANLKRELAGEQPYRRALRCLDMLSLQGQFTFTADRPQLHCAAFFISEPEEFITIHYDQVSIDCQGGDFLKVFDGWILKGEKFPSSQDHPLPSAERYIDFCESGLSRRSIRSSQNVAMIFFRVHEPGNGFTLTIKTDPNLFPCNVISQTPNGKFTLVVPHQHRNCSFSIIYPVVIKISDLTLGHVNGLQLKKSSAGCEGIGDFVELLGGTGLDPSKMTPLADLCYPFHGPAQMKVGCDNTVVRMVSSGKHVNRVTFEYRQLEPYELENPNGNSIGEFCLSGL

Aminopeptidase N = Aminopeptidase N (Plasmodium falciparum FcB1/Columbia, UniProt O96935); assay: P. falciparum M1AAP inhibitors, biochemical, fluorogenic H-Leu-NHMec substrate, 1536-well (AID 1445); design: species or system Plasmodium falciparum 3D7, 3D7
Aminopeptidase N, sequence (O96935 whole entry): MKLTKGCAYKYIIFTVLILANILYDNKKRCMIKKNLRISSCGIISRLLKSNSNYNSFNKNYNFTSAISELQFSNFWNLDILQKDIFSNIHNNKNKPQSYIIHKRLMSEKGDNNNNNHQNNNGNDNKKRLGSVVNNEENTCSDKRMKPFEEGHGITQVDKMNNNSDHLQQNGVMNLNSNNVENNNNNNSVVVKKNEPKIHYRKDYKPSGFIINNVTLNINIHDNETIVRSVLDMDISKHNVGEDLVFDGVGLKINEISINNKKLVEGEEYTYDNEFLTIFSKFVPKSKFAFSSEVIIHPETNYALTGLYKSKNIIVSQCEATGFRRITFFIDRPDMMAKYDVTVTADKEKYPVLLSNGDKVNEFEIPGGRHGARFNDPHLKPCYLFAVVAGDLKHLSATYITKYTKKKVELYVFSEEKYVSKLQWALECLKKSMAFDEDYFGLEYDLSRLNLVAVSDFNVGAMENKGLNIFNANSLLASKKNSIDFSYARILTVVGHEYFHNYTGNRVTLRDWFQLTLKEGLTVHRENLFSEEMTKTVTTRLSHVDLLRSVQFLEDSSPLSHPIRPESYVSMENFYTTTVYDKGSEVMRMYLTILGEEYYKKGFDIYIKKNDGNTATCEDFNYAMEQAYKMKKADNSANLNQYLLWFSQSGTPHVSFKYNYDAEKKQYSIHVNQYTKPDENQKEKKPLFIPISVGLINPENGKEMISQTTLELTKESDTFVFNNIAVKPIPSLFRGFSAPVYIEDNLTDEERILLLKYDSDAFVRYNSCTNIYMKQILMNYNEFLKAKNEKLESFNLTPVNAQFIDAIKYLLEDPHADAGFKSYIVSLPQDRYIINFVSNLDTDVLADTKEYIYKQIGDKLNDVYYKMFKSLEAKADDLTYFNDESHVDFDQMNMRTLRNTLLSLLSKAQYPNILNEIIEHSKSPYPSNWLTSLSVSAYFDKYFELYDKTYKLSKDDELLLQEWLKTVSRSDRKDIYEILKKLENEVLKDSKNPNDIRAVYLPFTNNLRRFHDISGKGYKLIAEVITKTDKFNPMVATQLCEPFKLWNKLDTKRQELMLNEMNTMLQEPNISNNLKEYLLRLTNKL

## O=C(Cn1c(=O)oc2cc(S(=O)(=O)N3CCCCCC3)ccc21)NC1CCCCC1
Estrogen receptor
  EC50: 12.9 µM (not active)

## Cc1ccccc1N(C)S(=O)(=O)c1nnc(NC(=O)c2ccco2)s1
[1]
  IC50: 67.8 µM (active)
[2]
  IC50: 25.9 µM (active)

## C=CCN(c1ccccc1OC)S(=O)(=O)c1ccc(Cl)c(C(=O)Nc2ccc(N3CCOCC3)cc2)c1
HEK293 [3]
  EC50: 12 µM (active)
Tumor necrosis factor
  IC50: 13.2 µM (active)
[4]
  IC50: 14 µM (active)
HEK293 [5]
  IC50: > 20 µM (inactive)
HEK293 [6]
  IC50: > 20 µM (inactive)
[7]
  IC50: 10.4 µM (active)
HEK293 [8]
  IC50: 14.4 µM (inactive)
HEK293 [9]
  IC50: > 20 µM (inactive)

## O=C(Nc1ccccc1-c1ccccc1)NC1CC2CCCC(C1)N2CCc1ccccc1 (stereo not drawn)
[10]
  EC50: 51.2 µM (not active)

## CC(=O)NC(=S)Nc1ccc(NC(=S)NC(=O)/C=C/c2ccco2)cc1
[1]
  IC50: > 100 µM (inactive)
Streptococcus
  EC50: 5.33 µM (active)
[11]
  EC50: 2.69 µM (active)
[2]
  IC50: 36.7 µM (active)

## C=CCSC1=Nc2sccc2C2=NC(=O)CN12
[10]
  EC50: > 100 µM (not active)
[12]
  EC50: 18.5 µM (active)

## COCCOC(=O)c1ccc(NC(=O)COc2ccc([N+](=O)[O-])cc2)cc1
[13]
  IC50: > 100 µM (active)

## Oc1ccc2ccccc2c1C1Nc2cccc3cccc(c23)N1
[14]
  CC50: > 40 µM (active)
Protein Tat
  IC50: 41.7 µM (inconclusive)
[13]
  IC50: > 100 µM (active)
[15]
  CC50: > 40 µM (active)

## Cc1ccc(-n2c3nc(=O)[nH]c(=O)c-3cc3cc([N+](=O)[O-])ccc32)cc1C
Hexokinase HKDC1
  IC50: 6.47 µM (active)
Vero
  CC50: 29.7 µM (active)
Genome polyprotein
  IC50: 65.1 µM (active)
[16]
  EC50: 10 µM (active)

## O=C(c1cnc2n(c1=O)CCS2)N(C1CCCCC1)C1CCCCC1
Aminopeptidase N
  IC50: 149 µM (active)

## O=C(Nc1nc2ccccc2n1Cc1ccc(Cl)cc1)c1cccs1
Tumor necrosis factor
  IC50: > 20 µM (inactive)
[4]
  IC50: > 20 µM (inactive)
HEK293 [6]
  IC50: > 20 µM (inactive)
[7]
  IC50: > 20 µM (inactive)

## COc1ccccc1-c1nnc(SC/C(O)=C(\C#N)c2nc3ccccc3[nH]2)n1C1CCCCC1
Aminopeptidase N
  IC50: 52.2 µM (active)
